The values that follow come from ChEMBL document CHEMBL4627352, “New acrylamide-sulfisoxazole conjugates as dihydropteroate synthase inhibitors” (Bioorg Med Chem, 2020).

The subject of series [1] is Streptococcus pneumoniae. The series can be described thus: Inhibition of DHPS in Streptococcus pneumoniae assessed as antibacterial activity by measuring inhibition zone at 5 mg/mL incubated for 24 hrs by disk diffusion method.
Series [2] has as its system Bacillus subtilis. Nature of the series: Inhibition of DHPS in Bacillus subtilis assessed as antibacterial activity by measuring inhibition zone at 5 mg/mL incubated for 24 hrs by disk diffusion method.
Series [3] relates to Staphylococcus epidermidis. The series can be described thus: Inhibition of DHPS in Staphylococcus epidermidis assessed as antibacterial activity by measuring inhibition zone at 5 mg/mL incubated for 24 hrs by disk diffusion method.
Series [4] concerns Escherichia coli. The series can be described thus: Inhibition of DHPS in Escherichia coli assessed as antibacterial activity by measuring inhibition zone at 5 mg/mL incubated for 24 hrs by disk diffusion method. On the technique in general: In agar diffusion tests the substance spreads into inoculated agar from a disc or well.
The subject of series [5] is Proteus vulgaris. Nature of the series: Inhibition of DHPS in Proteus vulgaris assessed as antibacterial activity by measuring inhibition zone at 5 mg/mL incubated for 24 hrs by disk diffusion method.
The test system of series [6] is Klebsiella pneumoniae. Nature of the series: Inhibition of DHPS in Klebsiella pneumoniae assessed as antibacterial activity by measuring inhibition zone at 5 mg/mL incubated for 24 hrs by disk diffusion method.
Series [7] deals with Streptococcus pneumoniae. Nature of the series: Inhibition of DHPS in Streptococcus pneumoniae assessed as antibacterial activity by measuring inhibition of bacterial growth incubated for 24 hrs by microbroth dilution method. On the technique in general: Broth dilution looks for growth in wells or tubes with falling amounts of substance.
In series [8] the test system is Bacillus subtilis. The series can be described thus: Inhibition of DHPS in Bacillus subtilis assessed as antibacterial activity by measuring inhibition of bacterial growth incubated for 24 hrs by microbroth dilution method.
For series [9], the system named is Staphylococcus epidermidis. The series can be described thus: Inhibition of DHPS in Staphylococcus epidermidis assessed as antibacterial activity by measuring inhibition of bacterial growth incubated for 24 hrs by microbroth dilution method.
Series [10] has as its system Escherichia coli. Nature of the series: Inhibition of DHPS in Escherichia coli assessed as antibacterial activity by measuring inhibition of bacterial growth incubated for 24 hrs by microbroth dilution method.
In series [11] the test system is Klebsiella pneumoniae. Nature of the series: Inhibition of DHPS in Klebsiella pneumoniae assessed as antibacterial activity by measuring inhibition of bacterial growth incubated for 24 hrs by microbroth dilution method.
In series [12] the test system is Aspergillus fumigatus. The series can be described thus: Inhibition of DHPS in Aspergillus fumigatus assessed as antifungal activity by measuring inhibition zone at 5 mg/mL incubated for 48 hrs by disk diffusion method.
The subject of series [13] is Syncephalastrum racemosum. Nature of the series: Inhibition of DHPS in Syncephalastrum racemosum assessed as antifungal activity by measuring inhibition zone at 5 mg/mL incubated for 48 hrs by disk diffusion method.
For series [14], the system named is Geotrichum candidum. Nature of the series: Inhibition of DHPS in Geotrichum candidum assessed as antifungal activity by measuring inhibition zone at 5 mg/mL incubated for 48 hrs by disk diffusion method.
Series [15] has as its system Syncephalastrum racemosum. The series can be described thus: Inhibition of DHPS in Syncephalastrum racemosum assessed as antifungal activity by measuring inhibition of fungal growth incubated for 48 hrs by microbroth dilution method.
Series [16] deals with Geotrichum candidum. The series can be described thus: Inhibition of DHPS in Geotrichum candidum assessed as antifungal activity by measuring inhibition of fungal growth incubated for 48 hrs by microbroth dilution method.
For series [17], the system named is hTERT-BJ. The series can be described thus: Cytotoxicity against human hTERT-BJ1 cells at 50 uM by acid phosphatase assay relative to control. Type of series: cell-based.
In series [18] the test system is Escherichia coli ATCC 25922. Nature of the series: Inhibition of DHPS in Escherichia coli ATCC 25922 assessed as inhibition of bacterial growth incubated for 24 hrs in presence of folate precursor, pABA by microbroth dilution method.
Series [19] deals with Escherichia coli ATCC 25922. The series can be described thus: Inhibition of DHPS in Escherichia coli ATCC 25922 assessed as inhibition of bacterial growth incubated for 24 hrs in presence of folate dependent metabolite, methionine by microbroth dilution method.
The subject of series [20] is Aspergillus fumigatus. Nature of the series: Inhibition of DHPS in Aspergillus fumigatus assessed as antifungal activity by measuring inhibition of fungal growth incubated for 48 hrs by microbroth dilution method.
In series [21] the test system is Syncephalastrum racemosum. The series can be described thus: Potency index, ratio of amphotericin B MIC to compound MIC for Syncephalastrum racemosum assessed as inhibition of DHPS-mediated fungal growth incubated for 48 hrs by microbroth dilution method.
Series [22] concerns Aspergillus fumigatus. The series can be described thus: Potency index, ratio of sulfisoxazole MIC to compound MIC for Aspergillus fumigatus assessed as inhibition of DHPS-mediated fungal growth incubated for 48 hrs by microbroth dilution method.
In series [23] the test system is Escherichia coli. The series can be described thus: Potency index, ratio of sulfisoxazole MIC to compound MIC for Escherichia coli assessed as inhibition of DHPS-mediated bacterial growth incubated for 24 hrs by microbroth dilution method.
For series [24], the system named is Geotrichum candidum. The series can be described thus: Potency index, ratio of sulfisoxazole MIC to compound MIC for Geotrichum candidum assessed as inhibition of DHPS-mediated fungal growth incubated for 48 hrs by microbroth dilution method.
Series [25] concerns Proteus vulgaris. Nature of the series: Inhibition of DHPS in Proteus vulgaris assessed as antibacterial activity by measuring inhibition of bacterial growth incubated for 24 hrs by microbroth dilution method.
For series [26], the system named is Staphylococcus epidermidis. The series can be described thus: Potency index, ratio of sulfisoxazole MIC to compound MIC for Staphylococcus epidermidis assessed as inhibition of DHPS-mediated bacterial growth incubated for 24 hrs by microbroth dilution method.
The test system of series [27] is Klebsiella pneumoniae. The series can be described thus: Potency index, ratio of sulfisoxazole MIC to compound MIC for Klebsiella pneumoniae assessed as inhibition of DHPS-mediated bacterial growth incubated for 24 hrs by microbroth dilution method.

≈ marks a conversion by molar mass, not a printed value. Calls of active or inactive are those of the source. No cut-off for these calls is given here.

Turning to `CCN/C(S)=C(/C#N)C(=O)Nc1ccc(S(=O)(=O)Nc2onc(C)c2C)cc1`, the inhibition zone (IZ) in [1] came to 13.7 mm; in series [2], 15.4 mm; in series [3], 17.3 mm; in series [4] it was 14.3 mm; in [5] it was 12.6 mm; in [6], 16.4 mm. The results for the inhibition zone (IZ) in [12], in series [13] and in series [14] were 12.6 mm, 13.2 mm and 17.1 mm, respectively. Besides, the MIC in series [7] stood at 62.5 µg/mL (≈ 148 µM); in series [8], 62.5 µg/mL (≈ 148 µM); in series [9] it was 31.2 µg/mL (≈ 74.1 µM); in [10], 62.5 µg/mL (≈ 148 µM); in series [11], 62.5 µg/mL (≈ 148 µM); in [15], 7.81 µg/mL (≈ 18.5 µM). For the same molecule, the MIC in series [16] came out at 15.6 µg/mL (≈ 37.1 µM). The Activity in [17] is given as 1.7%. Further, the inhibition entry in series [18] and in [19] was “inactive” each time.
For `C=CCN/C(S[C@@H]1O[C@H](COC(C)=O)[C@@H](OC(C)=O)[C@H](OC(C)=O)[C@H]1OC(C)=O)=C(/C#N)C(=O)Nc1ccc(S(=O)(=O)Nc2onc(C)c2C)cc1`, the inhibition zone (IZ) in series [1] amounted to 26.7 mm; in series [2] it was 28.6 mm; in series [3], 25.6 mm; in [4], 23.4 mm; in series [6], 23.2 mm; in [12] it was 26.1 mm. Moreover, the results for the inhibition zone (IZ) in series [13] and in [14] were 24.4 mm and 23.2 mm, respectively. The “inhibition zone (IZ)” value in [5] is “inactive”. The MIC in series [7] came out at 1.95 µg/mL (≈ 2.55 µM); in [8], 0.98 µg/mL (≈ 1.28 µM); in series [9] it was 3.9 µg/mL (≈ 5.11 µM); in series [10], 3.9 µg/mL (≈ 5.11 µM); in [11], 0.49 µg/mL (≈ 0.642 µM); in series [20], 0.98 µg/mL (≈ 1.28 µM). Also, the MIC was determined as 1.95 µg/mL (≈ 2.55 µM) in series [15] and 0.49 µg/mL (≈ 0.642 µM) in series [16]. The Activity in series [17] is on record as 15.2%. Besides, the inhibition entry in series [18] and in series [19] was “inactive” throughout. Moreover, the Ratio in series [21] is 2; in [22] it was 4 to 6; in series [23], 4; in series [24] it was 3 to 5.
For the molecule `Cc1noc(NS(=O)(=O)c2ccc(NC(=O)/C(C#N)=C(/S)Nc3ccccc3)cc2)c1C`, the “inhibition zone (IZ)” value in series [1], in series [2], in series [3], in [4], in series [5] and in [6] was “inactive” throughout. Besides, the inhibition zone (IZ) in [12] amounted to 16.8 mm; in series [13], 14.3 mm; in [14], 17.1 mm. In addition, the MIC came to 15.6 µg/mL (≈ 33.3 µM) in [20], 125 µg/mL (≈ 266 µM) in series [15] and 31.2 µg/mL (≈ 66.6 µM) in series [16]. The inhibition result in series [18] and in [19] was “inactive” each time. For the same molecule, the Ratio in series [22] amounted to 2.
With `CN/C(S)=C(/C#N)C(=O)Nc1ccc(S(=O)(=O)Nc2onc(C)c2C)cc1`, the inhibition zone (IZ) is 20.3 mm in series [1]; 22.4 mm in series [2]; 20.8 mm in series [3]; 20.6 mm in [4]; 18.3 mm in series [5]; 22.6 mm in series [6]. Besides, the results for the inhibition zone (IZ) in [12], in series [13] and in [14] were 18.6 mm, 17.2 mm and 18.9 mm, respectively. Besides, the MIC in [7] is 3.9 µg/mL (≈ 9.57 µM); in series [8] it was 0.98 µg/mL (≈ 2.41 µM); in series [9], 1.95 µg/mL (≈ 4.79 µM); in [10] it was 1.95 µg/mL (≈ 4.79 µM); in series [25] it was 7.81 µg/mL (≈ 19.2 µM); in series [11], 0.98 µg/mL (≈ 2.41 µM). For the same molecule, the MIC was 3.9 µg/mL (≈ 9.57 µM) in [20], 15.6 µg/mL (≈ 38.4 µM) in [15] and 3.9 µg/mL (≈ 9.57 µM) in [16]. Further, the inhibition entry in series [18] and in series [19] was “inactive” in each case. Moreover, the Ratio in series [22] is 4; in [26], 4; in series [27], 3; in [24], 2.
On to GENTAMICIN, for which the results for the inhibition zone (IZ) in series [4], in series [5] and in series [6] were 19.9 mm, 23.4 mm and 26.3 mm, respectively. Besides, the MIC in series [8] was 0.24 µg/mL; in series [10], 1.95 µg/mL; in series [25], 0.24 µg/mL; in series [11], 0.03 µg/mL.
Take `CCN/C(S[C@@H]1O[C@H](COC(C)=O)[C@@H](OC(C)=O)[C@H](OC(C)=O)[C@H]1OC(C)=O)=C(/C#N)C(=O)Nc1ccc(S(=O)(=O)Nc2onc(C)c2C)cc1`: the inhibition zone (IZ) in [1] was 25.3 mm; in [2], 27.5 mm; in series [3] it was 24.7 mm; in [4], 21.3 mm; in [5], 21.4 mm; in series [6], 18.8 mm. For the same molecule, the inhibition zone (IZ) was 24.2 mm in series [12], 21.3 mm in series [13] and 22.1 mm in [14]. Besides, the MIC in series [7] worked out at 3.9 µg/mL (≈ 5.19 µM); in series [8] it was 1.95 µg/mL (≈ 2.59 µM); in [9], 3.9 µg/mL (≈ 5.19 µM); in series [10] it was 7.81 µg/mL (≈ 10.4 µM); in series [25] it was 7.81 µg/mL (≈ 10.4 µM); in [11] it was 0.98 µg/mL (≈ 1.3 µM). In addition, the MIC was determined as 3.9 µg/mL (≈ 5.19 µM) in series [20], 15.6 µg/mL (≈ 20.8 µM) in [15] and 0.98 µg/mL (≈ 1.3 µM) in series [16]. The inhibition result in series [18] and in series [19] was “inactive” throughout. Also, the Ratio in series [22] fell in the range of 4 to 6; in [24] it was 3 to 5.
With `CCS/C(NC)=C(\C#N)C(=O)Nc1ccc(S(=O)(=O)Nc2onc(C)c2C)cc1`, the inhibition zone (IZ) was 20.2 mm in series [1]; 21.2 mm in series [2]; 20.9 mm in series [3]; 18.2 mm in series [4]; 16.4 mm in series [5]; 21.3 mm in series [6]. For the same molecule, the values for the inhibition zone (IZ) in series [12], in series [13] and in series [14] were 17.1 mm, 19.9 mm and 18.3 mm, respectively. Besides, the MIC in series [7] was 3.9 µg/mL (≈ 8.95 µM); in series [8] it was 0.98 µg/mL (≈ 2.25 µM); in series [9], 1.95 µg/mL (≈ 4.48 µM); in series [10], 7.81 µg/mL (≈ 17.9 µM); in series [25], 31.2 µg/mL (≈ 71.8 µM); in [11] it was 1.95 µg/mL (≈ 4.48 µM). For the same molecule, the MIC in series [20] was found to be 15.6 µg/mL (≈ 35.9 µM); in [15] it was 3.9 µg/mL (≈ 8.95 µM); in series [16], 7.81 µg/mL (≈ 17.9 µM). The molecule also came in with an Activity in [17] of 2.7%. For the same molecule, the inhibition result in series [18] and in [19] was “inactive” throughout. The Ratio in series [21] stood at 2.
`CCN/C(SC)=C(/C#N)C(=O)Nc1ccc(S(=O)(=O)Nc2onc(C)c2C)cc1`: the Activity in series [17] is listed as 1.1%.
